Here are results for 13 compounds from patent US11739098B2 (BRISTOL-MYERS SQUIBB COMPANY, priority 2017, dated 2023).

Structures are written as SMILES.

What all share (type): cell-based
Assay [1] deals with T1, human TLR8 (Homo sapiens, UniProt Q9NR97).
T1 construct: host or cells: HEK-Blue cells (HEK293-derived reporter line)
T1 sequence (Q9NR97 27-1041): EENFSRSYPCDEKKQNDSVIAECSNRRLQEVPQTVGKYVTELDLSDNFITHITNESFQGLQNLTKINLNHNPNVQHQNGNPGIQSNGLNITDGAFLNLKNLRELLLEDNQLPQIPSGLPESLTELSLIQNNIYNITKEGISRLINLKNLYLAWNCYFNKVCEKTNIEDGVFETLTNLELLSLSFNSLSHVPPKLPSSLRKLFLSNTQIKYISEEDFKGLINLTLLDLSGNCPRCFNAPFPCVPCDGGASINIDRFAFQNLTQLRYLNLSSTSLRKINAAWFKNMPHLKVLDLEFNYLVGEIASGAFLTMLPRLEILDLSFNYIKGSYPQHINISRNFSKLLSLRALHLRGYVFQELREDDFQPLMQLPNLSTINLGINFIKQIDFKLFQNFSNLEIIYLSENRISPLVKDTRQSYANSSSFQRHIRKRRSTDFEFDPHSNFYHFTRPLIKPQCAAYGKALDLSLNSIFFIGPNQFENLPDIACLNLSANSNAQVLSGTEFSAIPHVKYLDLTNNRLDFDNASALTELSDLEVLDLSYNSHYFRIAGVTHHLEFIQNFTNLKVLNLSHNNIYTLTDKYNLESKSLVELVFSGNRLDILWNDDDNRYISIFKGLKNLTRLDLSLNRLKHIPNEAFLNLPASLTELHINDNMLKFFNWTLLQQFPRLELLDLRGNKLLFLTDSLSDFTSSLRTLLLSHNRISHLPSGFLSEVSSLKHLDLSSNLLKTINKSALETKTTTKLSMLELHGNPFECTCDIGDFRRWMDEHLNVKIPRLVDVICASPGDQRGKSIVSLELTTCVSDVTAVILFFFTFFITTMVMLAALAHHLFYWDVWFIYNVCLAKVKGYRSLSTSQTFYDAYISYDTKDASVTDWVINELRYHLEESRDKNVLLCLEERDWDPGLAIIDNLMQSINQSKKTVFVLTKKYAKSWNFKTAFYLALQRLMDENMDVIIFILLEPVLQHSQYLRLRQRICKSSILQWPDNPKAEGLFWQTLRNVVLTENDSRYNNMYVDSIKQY
The assay is described as follows: TLR8 inhibition reporter assay (HEK-Blue cells, SEAP reporter, R848 stimulation). To be noted: HEK-Blue cells overexpressing human TLR8, SEAP reporter, R848 15.9 μM. In short, it runs like this: (§1)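 Read-out is SEAP activity in HEK-Blue detection medium after 22 h at 37 °C, converted to percent inhibition against agonist-plus-DMSO and reference-inhibitor controls. Cells saw compound (0.05 nM–50 μM, 30 min, room temperature) before gardiquimod 7.5 μM, R848 15.9 μM or ODN2006 5 nM for TLR7, TLR8 and TLR9, respectively.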
A general note: In a reporter assay the amount or activity of a reporter protein is the signal.

Assay [2] addresses T2, human TLR9 (Homo sapiens, UniProt Q9NR96).
T2 construct: host or cells: HEK-Blue cells (HEK293-derived reporter line)
T2 sequence (Q9NR96 26-1032): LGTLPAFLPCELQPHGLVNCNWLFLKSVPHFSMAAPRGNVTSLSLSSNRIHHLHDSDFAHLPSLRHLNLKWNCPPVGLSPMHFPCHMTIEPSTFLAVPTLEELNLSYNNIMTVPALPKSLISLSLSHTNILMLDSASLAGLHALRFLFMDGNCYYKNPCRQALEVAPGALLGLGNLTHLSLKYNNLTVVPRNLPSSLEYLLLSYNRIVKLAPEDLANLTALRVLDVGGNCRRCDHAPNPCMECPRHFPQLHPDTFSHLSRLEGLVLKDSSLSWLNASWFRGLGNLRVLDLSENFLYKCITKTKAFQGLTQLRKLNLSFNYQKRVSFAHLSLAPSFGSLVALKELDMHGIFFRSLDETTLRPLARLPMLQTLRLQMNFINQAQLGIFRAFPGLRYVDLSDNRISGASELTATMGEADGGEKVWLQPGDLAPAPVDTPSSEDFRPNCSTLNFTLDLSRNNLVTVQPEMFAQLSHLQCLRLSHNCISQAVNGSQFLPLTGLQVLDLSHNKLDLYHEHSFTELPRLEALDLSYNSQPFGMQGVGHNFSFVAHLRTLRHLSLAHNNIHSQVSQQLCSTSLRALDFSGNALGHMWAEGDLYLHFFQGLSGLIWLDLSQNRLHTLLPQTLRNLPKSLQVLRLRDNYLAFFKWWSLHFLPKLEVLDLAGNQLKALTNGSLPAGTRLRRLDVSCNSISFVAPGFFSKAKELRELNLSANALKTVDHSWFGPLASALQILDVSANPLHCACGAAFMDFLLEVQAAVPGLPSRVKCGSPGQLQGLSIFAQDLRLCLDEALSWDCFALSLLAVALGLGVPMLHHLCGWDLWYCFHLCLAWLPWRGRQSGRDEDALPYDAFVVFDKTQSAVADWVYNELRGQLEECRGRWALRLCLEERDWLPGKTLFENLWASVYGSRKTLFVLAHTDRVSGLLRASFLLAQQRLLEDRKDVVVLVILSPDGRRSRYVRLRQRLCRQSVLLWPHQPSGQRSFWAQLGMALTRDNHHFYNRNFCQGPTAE
As to the kind of experiment: TLR9 inhibition reporter assay (HEK-Blue cells, SEAP reporter, ODN2006 stimulation). To be noted: HEK-Blue cells overexpressing human TLR9, SEAP reporter, ODN2006 5 nM. In short, it runs like this:
as §1

The target in assay [3] is T3, human TLR7 (Homo sapiens, UniProt Q9NYK1).
T3 construct: host or cells: HEK-Blue cells (HEK293-derived reporter line)
T3 sequence (Q9NYK1 27-1049): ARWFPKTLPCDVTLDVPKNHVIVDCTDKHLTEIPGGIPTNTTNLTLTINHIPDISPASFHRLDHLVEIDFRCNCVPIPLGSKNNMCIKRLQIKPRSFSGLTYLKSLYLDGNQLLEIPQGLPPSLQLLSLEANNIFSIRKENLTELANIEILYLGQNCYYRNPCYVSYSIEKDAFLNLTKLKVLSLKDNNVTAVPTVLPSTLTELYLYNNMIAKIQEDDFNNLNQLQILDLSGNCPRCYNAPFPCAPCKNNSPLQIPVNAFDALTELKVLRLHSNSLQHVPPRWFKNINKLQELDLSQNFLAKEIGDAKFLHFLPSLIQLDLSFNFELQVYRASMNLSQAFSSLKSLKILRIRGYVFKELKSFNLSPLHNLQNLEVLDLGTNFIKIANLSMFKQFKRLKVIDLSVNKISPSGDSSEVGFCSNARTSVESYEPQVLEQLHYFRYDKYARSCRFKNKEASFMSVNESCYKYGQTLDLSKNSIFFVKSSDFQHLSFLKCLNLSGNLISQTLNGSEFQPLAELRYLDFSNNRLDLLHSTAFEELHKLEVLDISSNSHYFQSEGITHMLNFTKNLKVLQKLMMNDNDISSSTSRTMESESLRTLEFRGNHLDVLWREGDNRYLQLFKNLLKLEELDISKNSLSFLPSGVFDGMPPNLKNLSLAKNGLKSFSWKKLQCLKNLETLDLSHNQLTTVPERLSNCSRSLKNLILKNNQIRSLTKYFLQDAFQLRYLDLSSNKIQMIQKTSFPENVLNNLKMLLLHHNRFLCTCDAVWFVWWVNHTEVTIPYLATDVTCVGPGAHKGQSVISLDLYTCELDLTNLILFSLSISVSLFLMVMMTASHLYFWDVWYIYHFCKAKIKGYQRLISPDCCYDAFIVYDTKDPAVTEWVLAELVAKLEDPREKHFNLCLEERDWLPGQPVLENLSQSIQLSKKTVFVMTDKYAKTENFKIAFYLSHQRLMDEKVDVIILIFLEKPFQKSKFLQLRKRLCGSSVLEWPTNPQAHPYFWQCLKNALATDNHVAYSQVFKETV
The assay is described as follows: TLR7 inhibition reporter assay (HEK-Blue cells, SEAP reporter, gardiquimod stimulation). To be noted: HEK-Blue cells overexpressing human TLR7, SEAP reporter, gardiquimod 7.5 μM. A digest of the protocol: as §1

As for `Cc1c(-c2ccnc3[nH]cc(C)c23)[nH]c2ccc(C3CCNCC3)cc12` [Example 4, 3-methyl-4-(3-methyl-5-(piperidin-4-yl)-1H-indol-2-yl)-1H-pyrrolo[2,3-b]pyridine], the IC50 in assay [1], in assay [2] and in assay [3] was 100 to 1000 nM each time.
Regarding `CC(C)c1c(-c2ccnc3[nH]ncc23)[nH]c2ccc(C3CCN(CC4CCN(C(C)C)CC4)CC3)c(F)c12` [Example 967, 4-(4-fluoro-3-isopropyl-5-(1-((1-isopropylpiperidin-4-yl)methyl)piperidin-4-yl)-1H-indol-2-yl)-1H-pyrazolo[3,4-b]pyridine], the IC50 in assay [1] was 100 to 1000 nM; in assay [2], 1000 to 50000 nM; in assay [3], 100 to 1000 nM.
`Cc1cc2nccn2cc1-c1[nH]c2ccc(C3CCN(C4CCOCC4)CC3)cc2c1C(C)C` [Example 693, 6-(3-isopropyl-5-(1-(tetrahydro-2H-pyran-4-yl)piperidin-4-yl)-1H-indol-2-yl)-7-methylimidazo[1,2-a]pyridine]: the IC50 in assay [1] is less than 100 nM; in assay [2], 100 to 1000 nM; in assay [3] it was less than 100 nM.
On to `Cc1cc2[nH]c(-c3ccnc4[nH]ncc34)c(C(C)C)c2cc1C1CCN(C2CCN(C(C)C)CC2)CC1` [Example 826, 4-(3-isopropyl-5-(1′-isopropyl-[1,4′-bipiperidin]-4-yl)-6-methyl-1H-indol-2-yl)-1H-pyrazolo[3,4-b]pyridine], for which the IC50 was less than 100 nM in assay [1], 100 to 1000 nM in assay [2] and less than 100 nM in assay [3].
On to `Cc1cn2c(C)cc(-c3[nH]c4ccc(C5CCN(CC(=O)N(C)C)CC5)cc4c3C(C)C)cc2n1` [Example 353, 2-(4-(2-(2,5-dimethylimidazo[1,2-a]pyridin-7-yl)-3-isopropyl-1H-indol-5-yl)piperidin-1-yl)-N,N-dimethylacetamide], for which the figures for the IC50 in assay [1], in assay [2] and in assay [3] were 1000 to 50000 nM, 100 to 1000 nM and 100 to 1000 nM, respectively.
With `CC(C)c1c(-c2ccc3nccn3c2)[nH]c2ccc(C3CCN(Cc4c[nH]cn4)CC3)cc12` [Example 940, 6-(5-(1-((1H-imidazol-4-yl)methyl)piperidin-4-yl)-3-isopropyl-1H-indol-2-yl)imidazo[1,2-a]pyridine], the IC50 in assay [1], in assay [2] and in assay [3] was less than 100 nM throughout.
With `CC(C)c1c(-c2ccc3nccnc3c2)[nH]c2ccc(C3CCNCC3)cc12` [Example 165, 6-(3-isopropyl-5-(piperidin-4-yl)-1H-indol-2-yl)quinoxaline], the IC50 in assay [1] was 100 to 1000 nM; in assay [2], 1000 to 50000 nM; in assay [3] it was less than 100 nM.
Consider `Cc1cc(-c2[nH]c3ccc(C4CCN(CC(N)=O)CC4)cc3c2C(C)C)cn2nnnc12` [Example 311, 2-(4-(3-isopropyl-2-(8-methyltetrazolo[1,5-a]pyridin-6-yl)-1H-indol-5-yl)piperidin-1-yl) acetamide], for which the IC50 in assay [1] was less than 100 nM; in assay [2], 1000 to 50000 nM; in assay [3] it was less than 100 nM.
With `CC(C)c1c(-c2ccnc3[nH]ncc23)[nH]c2ccc(C3CCN(C(=O)CCN4CCCCC4)CC3)cc12` [Example 641, 1-(4-(3-isopropyl-2-(1H-pyrazolo[3,4-b]pyridin-4-yl)-1H-indol-5-yl)piperidin-1-yl)-3-(piperidin-1-yl)propan-1-one], the IC50 in assay [1] is less than 100 nM; in assay [2] it was 1000 to 50000 nM; in assay [3], less than 100 nM.
Consider `CC(C)c1c(-c2cn(C)c3c(=O)n(C)ccc23)[nH]c2ccc(C3CCN(CC(=O)N(C)C)CC3)cc12` [Example 297, 2-(4-(2-(1,6-dimethyl-7-oxo-6,7-dihydro-1H-pyrrolo[2,3-c]pyridin-3-yl)-3-isopropyl-1H-indol-5-yl)piperidin-1-yl)-N,N-dimethylacetamide], for which the IC50 in assay [1] was less than 100 nM; in assay [2], 1000 to 50000 nM; in assay [3] it was less than 100 nM.
`CCc1c(-c2cccc3c2cnn3C)[nH]c2ccc(C3CCN(C(=O)CN[C@H]4CC[C@@H](N)CC4)CC3)cc12` [Example 519, 2-(((1s,4s)-4-aminocyclohexyl)amino)-1-(4-(3-ethyl-2-(1-methyl-1H-indazol-4-yl)-1H-indol-5-yl)piperidin-1-yl)ethan-1-one]: the values for the IC50 in assay [1], in assay [2] and in assay [3] were greater than 50000 nM, 1000 to 50000 nM and greater than 50000 nM, respectively.
`CC(C)c1c(-c2ccc3c(N)noc3c2)[nH]c2ccc(C3CCNCC3)cc12` [Example 86, 6-(3-isopropyl-5-(piperidin-4-yl)-1H-indol-2-yl)benzo[d]isoxazol-3-amine]: the half-maximal inhibitory concentration (IC50) in assay [1], in assay [2] and in assay [3] was 100 to 1000 nM throughout.
With `COc1cc(-c2[nH]c3ccc(C4CCNCC4)cc3c2C(C)C)cc2ncnn12` [Example 158, 7-(3-isopropyl-5-(piperidin-4-yl)-1H-indol-2-yl)-5-methoxy-[1,2,4]triazolo[1,5-a]pyridine], the IC50 was less than 100 nM in assay [1], 1000 to 50000 nM in assay [2] and less than 100 nM in assay [3].

The IC50 is the concentration needed to halve the response being measured.
